Data published in patent US6583309B1 (University of Medicine and Dentistry of New Jersey, priority 1999, dated 2003).

Target: TAR RNA
Assay: In vitro binding of resin-bound compounds to TAR RNA (OD260 of unbound RNA)
Design: species or system HIV
Conditions: in vitro assay; compounds of formula I on TentaGel beads incubated with TAR RNA overnight at 4° C. in TK buffer; read-out: Kd (nM), binding constants
Description: Binding of compounds of formula I and V to TAR RNA was measured by evaluating their inhibition of TAR-TAT complex formation in the presence of increasing levels of the compound to be tested. The compounds of formula I were tested in an in vitro assay; the compounds of formula V were tested in an in vivo assay.
The TAR RNA used corresponds to the minimal sequence required for TAT responsiveness in vivo. This 29-residue oligonucleotide has the sequence: 5′-[…]-3′ (SEQ ID NO.: 1). TAR RNA was prepared by in vitro transcription. A “top strand” single-stranded DNA oligomer having the sequence 5′-TAATACGACTCACTATAG-3′ (SEQ ID NO.: 2) was annealed to a “bottom strand” single-stranded DNA template having the following sequence: 3′-[…]-5′ (SEQ ID NO.: 3), thereby generating a double-stranded region corresponding to a promoter sequence recognized by T7 RNA polymerase. Transcription was carried out in transcription buffer (40 mM Tris-HCl, pH 8.1, 1 mM spermidine, 0.01% Triton®X-100, 5 mM dithiothreitol, 4 mM each of ATP, GTP, CTP, and UTP at 37° C. for 4 to 5 hours. Reactions were performed in a volume of 0.02 ml containing 8 pmole of template (top strand annealed to bottom strand) and 40 to 60 units of T7 RNA polymerase. Transcription was terminated by adding an equal volume of loading buffer (9M urea, 1 mmol EDTA, 0.1M bromophenol blue in 1XTBE buffer; TBE is 45 mmol trisborate at pH 8). Product RNA was purified by electrophoresis through a denaturing 20% polyacrylamide gel containing 8M urea. RNA was extracted from the gel, precipitated, dissolved in dithylpyrocarbonate-treated water, and stored at −20° C. until used.
In vitro assay conditions: Compounds AA-DU were synthesized on TentaGel S—NH2 (4.6 mmole). All Fmoc-amino acids were purchased from Bachem (Torrance, Calif.). 1-hydroxybenzotriazole (HOBT) and diisopropylcarbodiimide (DIPCDI) were obtained from Aldrich Chemical Co., Milwalkee, Wis. Piperidine and trifluoroacetic acid were purchased from Applied Biosystems Division, Perkin-Elmer. Compounds AA-DU were synthesized manually according to standard solid-phase peptide synthesis protocols. Coupling efficiencies of residues at each step were monitored by Kaiser test. Deprotection of trimer peptides was carried out in 10% water in trifluoroacetic acid (1 mL) for 16 hours at room temperature. After filtration of solvents, the resin was washed with water (1 mL×4), DMF (1 mL×4), dichloromethane (1 mL×4), and dried under reduced pressure. The compounds attached to the resin (10 beads) were placed in an Eppendorf tube and washed with TK buffer ([…]). The beads were suspended in TK buffer ([…]) and incubated with TAR RNA ([…]) overnight at 4° C. The suspension was centrifuged and the supernatant containing unbound RNA was transferred to a cuvette for OD260 measurements. The UV absorbance was measured by a Shimadzu UV-1601 spectrometer. Equilibrium concentrations of RNA were determined from these measurements. Given that the initial concentrations of ligand and RNA are known, and assuming simple bimolecular receptor/substrate binding, dissociation constant (KD) was calculated from straightforward equations.

Row | SMILES | Kd
1 | NCCCC[C@H](COC(N)=O)NC(=O)OC[C@H](CCCCN)NC(=O)[C@H](N)CCCCN (stereo in doubt) [Compound AM, Carbamic acid 6-amino-2-[6-amino-2-(2,6-diamino-hexanoylamino)-hexyloxycarbonylamino]-hexyl ester] | 183 nM
2 | NCCCC[C@H](N)COC(=O)N(CCCCN)CC(=O)N[C@H](CCCCN)COC(N)=O (stereo in doubt) [Compound AS, Carbamic acid 6-amino-2-{2-[(4-amino-butyl)-(2,6-diamino-hexyloxycarbonyl)-amino]-acetylamino}-hexyl ester] | 147 nM
3 | NCCCCCN(CC(=O)N[C@H](CCCCN)COC(N)=O)C(=O)OC[C@H](N)CCCCN (stereo in doubt) [Compound BC, Carbamic acid 6-amino-2-{2-[(5-amino-pentyl)-(2,6-diamino-hexyloxycarbonyl)-amino]-acetylamino}-hexyl ester] | 183 nM
4 | NCCCC[C@H](N)COC(=O)N[C@@H](CCCCN)C(=O)N[C@H](CCCCN)COC(N)=O (stereo in doubt) [Compound BT, Carbamic acid 6-amino-2-[6-amino-2-(2,6-diamino-hexyloxycarbonylamino)-hexanoylamino]-hexyl ester] | 202 nM
5 | NCCCC[C@H](COC(N)=O)NC(=O)[C@H](CCCCN)NC(=O)[C@@H](N)CCCCN (stereo in doubt) [Compound BV, Carbamic acid 6-amino-2-[6-amino-2-(2,6-diamino-hexanoylamino)-hexanoylamino]-hexyl ester] | 403 nM
6 | NCCCC[C@@H](COC(N)=O)NC(=O)OC[C@@H](CCCCN)NC(=O)[C@H](N)CCCCN (stereo in doubt) [Compound CD, Carbamic acid 6-amino-2-[6-amino-2-(2,6-diamino-hexanoylamino)-hexyloxycarbonylamino]-hexyl ester] | 567 nM
7 | NCCCC[C@H](N)COC(=O)N[C@@H](CCCCN)COC(=O)N[C@@H](CCCCN)COC(N)=O (stereo in doubt) [Compound CJ, Carbamic acid 6-amino-2-[6-amino-2-(2,6-diamino-hexyloxycarbonylamino)-hexyloxycarbonylamino]-hexyl ester] | 1260 nM
8 | NCCCC[C@@H](COC(N)=O)NC(=O)OC[C@H](CCCCN)NC(=O)[C@@H](N)CCCCN (stereo in doubt) [Compound CL, Carbamic acid 6-amino-2-[6-amino-2-(2,6-diamino-hexanoylamino)-hexyloxycarbonylamino]-hexyl ester] | 130 nM
9 | NCCCC[C@H](N)COC(=O)N[C@H](CCCCN)COC(=O)N[C@H](CCCCN)COC(N)=O [Compound AA, Carbamic acid 6-amino-2-[6-amino-2-(2,6-diamino-hexyloxycarbonylamino)-hexyloxycarbonylamino]-hexyl ester] | 639 nM
10 | NCCCC[C@@H](N)COC(=O)N[C@H](CCCCN)COC(=O)N[C@H](CCCCN)COC(N)=O [Compound AB, Carbamic acid 6-amino-2-[6-amino-2-(2,6-diamino-hexyloxycarbonylamino)-hexyloxycarbonylamino]-hexyl ester] | 523 nM
11 | NCCCC[C@H](COC(N)=O)NC(=O)OC[C@@H](CCCCN)NC(=O)[C@@H](N)CCCCN [Compound AC, Carbamic acid 6-amino-2-[6-amino-2-(2,6-diamino-hexanoylamino)-hexyloxycarbonylamino]-hexyl ester] | 215 nM
12 | NCCCC[C@H](COC(N)=O)NC(=O)OC[C@@H](CCCCN)NC(=O)[C@H](N)CCCCN [Compound AD, Carbamic acid 6-amino-2-[6-amino-2-(2,6-diamino-hexanoylamino)-hexyloxycarbonylamino]-hexyl ester] | 2080 nM
13 | NCCCCCNCC(=O)N[C@H](CCCCN)COC(=O)N[C@H](CCCCN)COC(N)=O [Compound AE, Carbamic acid 6-amino-2-{6-amino-2-[2-(5-amino-pentylamino)-acetylamino]-hexyloxycarbonylamino}-hexyl ester] | 1110 nM
